Experimental data from patent US10577363B2, “Substituted piperidine compounds” (EPIZYME, INC., priority 2014, dated 2020).

target: SMYD3 (Homo sapiens (Human), UniProt Q9H7B4); test: SMYD3 biochemical assay (SPA, 3H-SAM methylation of MEKK2 protein substrate); settings: Table 1A; IC50 values are an average of n = 1 to n = 50; read-out: SMYD3 Biochem IC50
How it was run: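 Tritium incorporation into GST-MEKK2 is counted by scintillation proximity after citric acid bead capture. Native human SMYD3 is preincubated with test compound for 30 min at room temperature at pH 8.0 (Tris-Cl, TCEP, BSG, Tween 20) before 3H-SAM and substrate are added; cold SAM at 100 uM final stops turnover.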

IC50	SMILES
0.0501 µM	C[C@H]1C[C@@H](NC(=O)c2cc(C3CC3)on2)CCN1S(=O)(=O)c1cccc(NCCCN)n1 [compound 520, N-((2S,4S)-1-((6-((3-aminopropyl)amino)pyridin-2-yl)sulfonyl)-2-methylpiperidin-4-yl)-5-cyclopropylisoxazole-3-carboxamide]

same assay, conditions: average of n = 1 to n = 50; read-out: SMYD3 Biochem IC50

IC50	SMILES
0.218 µM	C[C@@H]1C[C@@H](NC(=O)c2cc(C3CC3)on2)CCN1S(=O)(=O)C(CCN)c1ccccc1 (stereo partly drawn) [compound 704, N-((2R,4S)-1-((3-amino-1-phenylpropyl)sulfonyl)-2-methylpiperidin-4-yl)-5-cyclopropylisoxazole-3-carboxamide]

same assay, conditions: read-out: SMYD3 Biochem IC50

IC50	SMILES
0.0742 µM	NCCCNc1ccc(S(=O)(=O)N2C3CCCC2CC(NC(=O)c2cc(C4CC4)on2)C3)cn1 (stereo not shown) [compound 516, N-(9-((6-((3-aminopropyl)amino)pyridin-3-yl)sulfonyl)-9-azabicyclo[3.3.1]nonan-3-yl)-5-cyclopropylisoxazole-3-carboxamide]

same assay, conditions: read-out: SMYD3 Biochem IC50 (μM)*

IC50	SMILES
3.82 µM	C[C@@H]1C[C@@H](NC(=O)c2cc(C3CC3)on2)CCN1C(=O)CCCN [compound 208, N-((2R,4S)-1-(4-aminobutanoyl)-2-methylpiperidin-4-yl)-5-cyclopropylisoxazole-3-carboxamide]
> 10 µM	CNS(=O)(=O)N1CC[C@@H](NC(=O)c2cc(C3CC3)on2)C[C@@H]1C [compound 289, 5-cyclopropyl-N-((2S,4R)-2-methyl-1-(N-methylsulfamoyl)piperidin-4-yl)isoxazole-3-carboxamide]
1.86 µM	C[C@@H]1CC(NC(=O)c2cc(C3CC3)on2)CCN1C(=O)C[C@H](O)CCN (stereo partly drawn) [compound 134, N-((2R)-1-((R)-5-amino-3-hydroxypentanoyl)-2-methylpiperidin-4-yl)-5-cyclopropylisoxazole-3-carboxamide]
7.73 µM	C[C@@H]1CC(NC(=O)c2cc(C3CC3)on2)CCN1C(=O)CCN1CCCC1 (stereo partly drawn) [compound 70, 5-cyclopropyl-N-((2R)-2-methyl-1-(3-(pyrrolidin-1-yl)propanoyl)piperidin-4-yl)isoxazole-3-carboxamide]
0.778 µM	C[C@@H]1CC(NC(=O)c2cc(C3CC3)on2)CCN1C(=O)CN1CCNCC1 (stereo partly drawn) [compound 92, 5-cyclopropyl-N-((2R)-2-methyl-1-(2-(piperazin-1-yl)acetyl)piperidin-4-yl)isoxazole-3-carboxamide]
6.24 µM	C[C@H]1CC(NC(=O)c2cc(C3CC3)on2)CCN1C(=O)C[C@H](O)CCN (stereo partly drawn) [compound 133, N-((2S)-1-((R)-5-amino-3-hydroxypentanoyl)-2-methylpiperidin-4-yl)-5-cyclopropylisoxazole-3-carboxamide]
3.16 µM	NCCCN1CCC(NC(=O)c2cc(C3CC3)on2)CC1 [compound 40, N-(1-(3-aminopropyl)piperidin-4-yl)-5-cyclopropylisoxazole-3-carboxamide]
25.2 µM	CCOC(=O)[C@@H]1CC(NC(=O)c2cc(C3CC3)on2)CCN1C(=O)CCCN (stereo partly drawn) [compound 159, ethyl (2S)-1-(4-aminobutanoyl)-4-(5-cyclopropylisoxazole-3-carboxamido)piperidine-2-carboxylate]
9.72 µM	C[C@@H]1CN(C(=O)CN)CC[C@H]1NC(=O)c1cc(C2CC2)on1 [compound 50, 5-cyclopropyl-N-((3R,4R)-1-glycyl-3-methylpiperidin-4-yl)isoxazole-3-carboxamide]
1.99 µM	C[C@@H]1CC(NC(=O)c2cc(C3CC3)on2)CCN1C(=O)CC1(CN)CCC1 (stereo partly drawn) [compound 205, N-((2R)-1-(2-(1-(aminomethyl)cyclobutyl)acetyl)-2-methylpiperidin-4-yl)-5-cyclopropylisoxazole-3-carboxamide]
0.552 µM	C[C@@H]1C[C@H](NC(=O)c2cc(C3CC3)on2)CCN1C(=O)C1CCCC(CN)C1 (stereo partly drawn) [compound 342, N-((2R,4R)-1-(3-(aminomethyl)cyclohexane-1-carbonyl)-2-methylpiperidin-4-yl)-5-cyclopropylisoxazole-3-carboxamide]
2.88 µM	N[C@@H](Cc1ccccc1)C(=O)N1CCC(NC(=O)c2cc(C3CC3)on2)CC1 [compound 1, N-(1-(L-phenylalanyl)piperidin-4-yl)-5-cyclopropylisoxazole-3-carboxamide]
5.08 µM	CN1CCC(CC(=O)N2CCC(NC(=O)c3cc(C4CC4)on3)CC2)CC1 [compound 18, 5-cyclopropyl-N-(1-(2-(1-methylpiperidin-4-yl)acetyl)piperidin-4-yl)isoxazole-3-carboxamide]
1.87 µM	COCCCS(=O)(=O)N1CC[C@H](NC(=O)c2cc(C3CC3)on2)C[C@@H]1C [compound 281, 5-cyclopropyl-N-((2S,4S)-1-((3-methoxypropyl)sulfonyl)-2-methylpiperidin-4-yl)isoxazole-3-carboxamide]

Continued, molecule first:

SMILES	IC50
C[C@@H]1CC(NC(=O)c2cc(C3CC3)on2)CCN1C(=O)C1(C)CCNCC1 (stereo partly drawn) [compound 224, 5-cyclopropyl-N-((2R)-2-methyl-1-(4-methylpiperidine-4-carbonyl)piperidin-4-yl)isoxazole-3-carboxamide]	1.42 µM
C[C@@H]1C[C@@H](NC(=O)c2cc(C3CC3)on2)CCN1C(=O)c1cccc(C(C)(C)N)c1 [compound 392, N-((2R,4S)-1-(3-(2-aminopropan-2-yl)benzoyl)-2-methylpiperidin-4-yl)-5-cyclopropylisoxazole-3-carboxamide]	> 10 µM
C[C@H]1C[C@H](NC(=O)c2cc(C3CC3)on2)CCN1C(=O)[C@H]1CC[C@H](N)CC1 [compound 60, N-((2S,4R)-1-((1r,4S)-4-aminocyclohexane-1-carbonyl)-2-methylpiperidin-4-yl)-5-cyclopropylisoxazole-3-carboxamide]	1.41 µM
CC(C)CS(=O)(=O)N1CC[C@@H](NC(=O)c2cc(C3CC3)on2)C[C@@H]1C [compound 323, 5-cyclopropyl-N-((2S,4R)-1-(isobutylsulfonyl)-2-methylpiperidin-4-yl)isoxazole-3-carboxamide]	> 10 µM
C[C@H]1CC(NC(=O)c2cc(C3CC3)on2)CCN1C(=O)CC1CCCC(N)C1 (stereo partly drawn) [compound 226, N-((2S)-1-(2-(3-aminocyclohexyl)acetyl)-2-methylpiperidin-4-yl)-5-cyclopropylisoxazole-3-carboxamide]	2.38 µM
C[C@@H]1CC(NC(=O)c2cc(C3CC3)on2)CCN1C(=O)[C@H]1CC[C@H](O)CC1 (stereo partly drawn) [compound 137, 5-cyclopropyl-N-((2R)-1-((1r,4R)-4-hydroxycyclohexane-1-carbonyl)-2-methylpiperidin-4-yl)isoxazole-3-carboxamide]	41.2 µM
C[C@@H]1CC(NC(=O)c2cc(C3CC3)on2)CCN1C(=O)C1CC12CCNCC2 (stereo partly drawn) [compound 136, 5-cyclopropyl-N-((2R)-2-methyl-1-(6-azaspiro[2.5]octane-1-carbonyl)piperidin-4-yl)isoxazole-3-carboxamide]	0.759 µM
C[C@H]1C[C@H](NC(=O)c2cc(C3CC3)on2)CCN1S(=O)(=O)Cc1cccnc1 [compound 325, 5-cyclopropyl-N-((2S,4R)-2-methyl-1-((pyridin-3-ylmethyl)sulfonyl)piperidin-4-yl)isoxazole-3-carboxamide]	> 10 µM
N[C@H]1CC[C@H](C(=O)N2CCC(NC(=O)c3cc(C4CC4)on3)C(C(F)(F)F)C2)CC1 (stereo partly shown) [compound 304, N-(1-((1r,4r)-4-aminocyclohexane-1-carbonyl)-3-(trifluoromethyl)piperidin-4-yl)-5-cyclopropylisoxazole-3-carboxamide]	2.04 µM
C[C@H](C(=O)N1CC[C@@H](NC(=O)c2cc(C3CC3)on2)C[C@H]1C)C1CCNCC1 [compound 305, 5-cyclopropyl-N-((2R,4R)-2-methyl-1-((S)-2-(piperidin-4-yl)propanoyl)piperidin-4-yl)isoxazole-3-carboxamide]	1.17 µM
C[C@@H](N)C(=O)NC[C@@H](Cc1ccc(O)c(I)c1)C(=O)N1CCC(NC(=O)c2cc(C3CC3)on2)CC1 [compound 42, N-(1-((R)-3-((R)-2-aminopropanamido)-2-(4-hydroxy-3-iodobenzyl)propanoyl)piperidin-4-yl)-5-cyclopropylisoxazole-3-carboxamide]	8.39 µM
O=C(N[C@@H]1CCN(S(=O)(=O)CCN2CCCC2)[C@@H](Cc2ccccc2)C1)c1cc(C2CC2)on1 [compound 406, N-((2S,4R)-2-benzyl-1-((2-(pyrrolidin-1-yl)ethyl)sulfonyl)piperidin-4-yl)-5-cyclopropylisoxazole-3-carboxamide]	3.41 µM
C[C@H]1C[C@@H](NC(=O)c2cc(C3CC3)on2)CCN1C(=O)[C@H]1CC[C@H](N)CC1 [compound 59, N-((2S,4S)-1-((1r,4S)-4-aminocyclohexane-1-carbonyl)-2-methylpiperidin-4-yl)-5-cyclopropylisoxazole-3-carboxamide]	7.97 µM
O=C(NC1CC2CCC(C1)N2S(=O)(=O)CC1CCNCC1)c1cc(C2CC2)on1 (stereo not shown) [compound 416, 5-cyclopropyl-N-(8-((piperidin-4-ylmethyl)sulfonyl)-8-azabicyclo[3.2.1]octan-3-yl)isoxazole-3-carboxamide]	0.164 µM
CCOC(=O)CS(=O)(=O)N1CC[C@@H](NC(=O)c2cc(C3CC3)on2)C[C@H]1C [compound 252, ethyl 2-(((2R,4R)-4-(5-cyclopropylisoxazole-3-carboxamido)-2-methylpiperidin-1-yl)sulfonyl)acetate]	> 10 µM
C[C@@H]1C[C@@H](NC(=O)c2cc(C3CC3)on2)CCN1S(=O)(=O)CCC(F)(F)F [compound 345, 5-cyclopropyl-N-((2R,4S)-2-methyl-1-((3,3,3-trifluoropropyl)sulfonyl)piperidin-4-yl)isoxazole-3-carboxamide]	> 10 µM
CC1(C)CC(NC(=O)c2cc(C3CC3)on2)CCN1C(=O)[C@H]1CC[C@H](N)CC1 (stereo partly shown) [compound 114, N-(1-((1r,4r)-4-aminocyclohexane-1-carbonyl)-2,2-dimethylpiperidin-4-yl)-5-cyclopropylisoxazole-3-carboxamide]	1.31 µM
